One series concerns Friend leukemia virus. To be noted: cited from earlier work; for suppression against RT activity: INK-11 compared with AZT alone.
The nature of series [1]: Cytotoxicity (TC50) of the compounds tested for anti-HIV-1 activity. The series is classed as cell-based, human. Conditions: human, CEM-SS cells. On the procedure:
(§1) The inhibitory effects of PC lipids, non-PC lipid-AZT conjugates, and double-targeting PC lipid-AZT conjugate compounds of the invention on replication of HIV-1 virus in cells was examined using the plaque assay procedure described in Kucera et al. (1990, AIDS Research and Human Retroviruses, 6:491). CEM-SS cells were seeded at 50,000 cells per milliliter in RPMI growth medium as a monolayer in 96-well dishes, inoculated with 50 to 100 plaque forming units of HIV-1 and overlaid with serial dilutions of either PC lipid, non-PC lipid-AZT conjugate, or PC-lipid-AZT conjugate in RPMI-1640 growth medium supplemented with 10% fetal bovine serum. The structures of the tested compounds are described in Table 1. AZT and PC lipids were used as positive controls. […] The cytotoxicity of PC lipids, non-PC lipid-AZT conjugates and double targeting PC lipid-AZT conjugates was assessed using the procedure described in Kucera et al. (1990, AIDS Res. And Human Retrovir., 6:496, and 1998, Antiviral Chemistry and Chemotherapy, 9:160). [drawing 16]

In a further series the test system is HIV-1. Nature of the series: HIV-1 syncytial plaque assay in CEM-SS cells. The format is cell-based. Conditions: for EC50: read-out: Anti-HIV-1 Activity (EC50). Here is the method: as §1
In the plaque assay, HIV-1 syncytial plaques are seen as large, multicellular foci (10 to 25 nuclei/syncytium) that appear either brown and granular or clear. Because the number of HIV-1 syncytial plaques was correlated with reverse transcriptase (RT) and p24 core antigen activity in the HIV-1 infected cell overlay fluids, the syncytial plaque assay could be used to quantify the amount of infectious virus. Reverse transcriptase activity was assayed according to the procedure described by Poeisz et al. (1980, Proc. Natl. Acad. Sci. U.S.A. 77:7415). The activity of p24 core antigen induced by HIV-1 infection of CEM-SS cells was measured spectrophotometrically using the commercial Coulter enzyme immunoassay (EIA).

Series [2] can be described thus: Oral administration of phospholipid-AZT conjugate in rodents (distribution, half-life). Also on record: species or system rodents (mice). To be noted: mouse, in vivo.
Series [3] concerns AZT-resistant clinical isolates of HIV-1. Nature of the series: microbe, parasite or virus in culture. The format is cell-based. Conditions: for EC50: mean of 2 to 4 independent tests. On the procedure: as §1
Evaluation of the clinical isolates to the compounds was performed using the plaque assay procedure described herein in Example 1. The matched pairs of clinical isolates were obtained through the AIDS Research and Reference Reagent Program, NIH, Bethesda, Md.

The test system of series [4] is HIV-1 persistently infected H9IIIB cells. The experiment in a line: Induction of defective HIV-1 in persistently infected H9IIIB cells (RT activity after infecting fresh CEM-SS cells). The series is classed as cell-based. Conditions: RT activity in CEM-SS overlay medium after 7 or 9 days; H9IIIB cells treated with 1.0 μM compound for 14 or 11 days. On the procedure: HIV-1 persistently infected H9IIIB cells were washed twice to remove extracellular HIV-1, resuspended in fresh growth medium with or without 1.0 μM of compound for a total of 14 days. During the treatment period, the cells were subcultured 1:3 three times a week. In addition, on days 3, 7 and 11, the cells were pelleted to remove extracellular HIV-1 before subculture in fresh growth medium with or without the compound. After 14 or 11 days of treatment, the virus was pelleted (100,000×g, 1 hr, 4 C.) from the overlay medium to remove free compound, resuspended in fresh medium without compound and assayed for RT activity. The virus suspension was normalized to 500,000 RT DPM and used to infect fresh CEM-SS cells. The infected CEM-SS cells were incubated for a total of 7 or 9 days, and the overlay medium was harvested and assayed for induction of RT activity. The % inhibition of RT activity was used as a measure of defective virus formation during the treatment period.

Another series relates to CEM-SS cells. The experiment in a line: Cytotoxicity (TC50) of the compounds tested for anti-HIV-1 activity. The format is cell-based, human. To be noted: read-out: Cytotoxicity (TC50). Here is the method: as §1
The subject of the next series is human lymphocytes. Nature of the series: Metabolism of conjugate in human lymphocytes in tissue culture. The format is in vitro ADME. On the procedure:
In another set of experiments the metabolism of the compound BM21-1290 using human lymphocytes in tissue culture was assessed. […] The predominant AZT species was AZT-MP with lesser amounts of AZT-DP, AZT-TP and AZT. […] AZT-MP can be activated to AZT-TP the inhibitor of HIV-1 induced reverse transcriptase.

Series [5] is described as follows: Cytotoxicity in Vero cell monolayers (cell morphology). Conditions: monkey, Vero cell monolayers (monkey kidney cells), 48 hours at 37° C., lowest concentration changing morphology in at least 25% of the cells, read-out: Cytotoxicity (TC50). The format is cell-based, monkey. On the procedure:
To measure cytotoxicity of the compounds, the cell monolayers (described above) were treated with a serial concentration of test compound for 48 hours at 37° C. and visually examined after crystal violet staining by light microscopy for changes in cell morphology (cell rounding, shrinking, detachment) compared to an untreated control culture.

Series [6] deals with herpes simplex virus type 2. The experiment in a line: Herpes simplex virus type 2 plaque inhibition in Vero cells. The series is classed as cell-based. Conditions: acyclovir in replicate tests; read-out: EC50 against herpes simplex virus type 2. On the procedure:
Proof-of-concept of the antiviral activity of the double-targeting PC lipid-AZT conjugate compounds of the invention with respect to herpes simplex virus type 2 was evaluated and compared with that of PC lipid alone and with acyclovir (positive controls). Serial dilutions of PC lipid, PC lipid-AZT conjugate compound, or acyclovir were evaluated for inhibition of the formation of herpes simplex virus type 2 plaques in Vero cells and EC50 values were calculated from the results obtained. Briefly, the tests for anti-herpes simplex virus (HSV) activity and cytotoxicity of the compounds were performed by seeding 8×10^4 monkey kidney cells (Vero) per ml of D-MEM with 10% fetal bovine serum (FBS) in each well of a 12-well dish. The cultures were incubated at 37° C. to form a complete monolayer. To measure anti-HSV activity and effective concentration50 (EC50) each cell monolayer was infected with HSV diluted in PBS-A containing about 100 plaque forming units (PFU) per 0.1 ml. After virus attachment (1 hr., 37° C.) the infected monolayers were overlaid with E-MEM containing 2% FBS and 0.5% methyl cellulose with or without added serial concentrations of test compound. […] The EC50 values were calculated using a computer generated program.

As usually defined, the EC50 is the concentration at which the effect is half-maximal. In general, half-life refers to the time in which the quantity being followed falls by half.

Molecules are shown by their SMILES. “And” between values parts separate entries of the source, which are not always exact repeats. Identical values can stand only once. Like-named read-outs stand apart in the source and are kept apart here.

As for `Cc1cn([C@H]2C[C@H](N=[N+]=[N-])[C@@H](CO)O2)c(=O)[nH]c1=O` [AZT, 3′-azido-3′-deoxythymidine, reference compound], the “suppression against RT activity” value in the series with Friend leukemia virus is on record as 98%. Besides, the CC50 in series [1] came out at 3.7 µM. For the same molecule, the “Differential Selectivity” value in the series on HIV-1 (DS = ratio of TC50 for cytotoxicity to EC50 for anti-HIV activity) stood at 411. Also, the EC50 with HIV-1 (Human immunodeficiency virus 1, CEM-SS, 120 h) amounted to 0.009 µM; in [3] (Human immunodeficiency virus 1, read-out: EC50 Pre-AZT G-762, pre-AZT isolate, patient code G-762), 0.001 µM; in series [3] (Human immunodeficiency virus 1, read-out: EC50 Pre-AZT H112-2, pre-AZT isolate, patient code H112-2), 0.002 µM. The half-life in series [2] (in rodents, units given within the value, read-out: half-life of AZT alone) lay in the range of 0.5 to 1 h. In series [3] (post-AZT G-691 versus pre-AZT G-762), the “Fold-Increase (G-762 to G-691)” value was 165. Besides, in series [3] (text summary over both isolate pairs), the “fold increase in AZT-resistance among HIV-1 clinical isolates” value is given as 680- to 1,100 fold. For the same molecule, in series [4], the DPM-Bkg is 5416 DPM and 6573 DPM.

As for `CCCCCCCCCCCCSCC(COP(=O)(O)OCC1OC(n2cc(C)c(=O)[nH]c2=O)CC1N=[N+]=[N-])OCCCCCCCCCC` (stereo not shown) [BM21-1290], in the series on CEM-SS cells, the CC50 was 38.5 µM. In addition, in the series with HIV-1 (plaques counted after five days at 37° C., CEM-SS cells), the EC50 was 0.02 µM. The intracellular metabolism entry in the series on human lymphocytes is “metabolized to form an alkyl-lipid plus a phosphorylated species of AZT”. In addition, in series [2], the “free AZT in the plasma” value is recorded as “little or no detectable free AZT in the plasma”; the half-life worked out at 48 h; the tissue uptake result is “preferentially taken up into lymphoid tissues (lymphoma, spleen and thymus)”. Also, in [2] (po), the “concentration in the brain versus plasma” value was “equivalent to the concentration of BM21-1290 in the plasma” and the oral bioavailability result is recorded as “orally bioavailable”.

Consider `Nc1nc2c(ncn2COCCO)c(=O)[nH]1` [Acyclovir, reference compound], for which the CC50 at 48 h in [5] was over 20 µM. The EC50 in series [6] was 12.5 µM and 14.5 µM and 6.67 µM.

As to `CCCCCCCCCCOC(CNC(=O)CCCCCCCCC)COP(=O)([O-])OCC[N+](C)(C)C` (stereo not shown) [INK-11, 1-decanamido-2-decyloxypropyl-3-phosphocholine], the “inhibition of FLV-induced pathogenesis (splenomegaly)” value in the series with Friend leukemia virus (50 milligrams per kilogram of body weight per day for 21 days, infected mice) is 42%. For the same molecule, in the series with Friend leukemia virus, the “suppression against RT activity” value was 42%.

The values are drawn from patent publication US7026469B2, “Compositions and methods of double-targeting virus infections and cancer cells” (Wake Forest University School of Medicine, priority 2000, dated 2006).
